# Reference: ChEMBL document CHEMBL1155943, “Design of a sialylglycopolymer with a chitosan backbone having efficient inhibitory activity against influenza virus infection” (J Med Chem, 2008)
# Assays:
# Influenza B virus [1] = assay: Antiviral activity against Influenza virus (B/Shanghai/361/2002) infected in MDCK cells; assay type: functional, organism-based; details: B/Shanghai/361/2002, MDCK
# Influenza A virus H3N2 [2] = assay: Antiviral activity against Influenza virus (A/Panama/2007/99 (H3N2)) infected in MDCK cells assessed as sialic acid concentration; assay type: functional, organism-based, Influenza A virus (A/Panama/2007/1999(H3N2))
# [3] = tested on: Influenza A virus (A/Puerto Rico/8/1934(H1N1)); assay: Antiviral activity against human influenza virus (A/New Caledonia/20/1999 (H1N1)) infected in MDCK cells; assay type: functional, organism-based, Influenza A virus (A/New Caledonia/20/1999(H1N1))
# [4] = tested on: Influenza A virus (A/Puerto Rico/8/1934(H1N1)); assay: Antiviral activity against human influenza virus (A/New Caledonia/20/1999 (H1N1)) infected in MDCK cells assessed as sialic acid concentration; assay type: functional, organism-based, Influenza A virus (A/New Caledonia/20/1999(H1N1))
# Influenza B virus [5] = assay: Antiviral activity against Influenza virus (B/Shanghai/361/2002) infected in MDCK cells assessed as sialic acid concentration; assay type: functional, organism-based; details: B/Shanghai/361/2002, MDCK
# Influenza A virus H3N2 [6] = assay: Antiviral activity against Influenza virus (A/Panama/2007/99 (H3N2)) infected in MDCK cells; assay type: functional, organism-based, Influenza A virus (A/Panama/2007/1999(H3N2))
smiles,measurement,setting,value
CC(=O)N[C@H]1[C@H]([C@H](O)[C@H](O)CO)O[C@](OC[C@H]2O[C@@H](O[C@@H]([C@H](O)[C@H](C=O)NC(C)=O)[C@H](O)CO)[C@H](O)[C@@H](O)[C@H]2O)(C(=O)O)C[C@@H]1O,IC50,Influenza B virus [1],10000 µg/mL
same,IC50,Influenza A virus H3N2 [2],4 mM
same,IC50,[3],2000 µg/mL
same,IC50,[4],3 mM
same,IC50,Influenza B virus [5],14.8 mM
same,IC50,Influenza A virus H3N2 [6],3000 µg/mL
